System: double-stranded DNA
Assay: Alkylation and cleavage of double-stranded DNA by ImPyLDu86 (gel, cleavage bands by heating)
Assay type: biochemical
Conditions: cleavage mainly at site 1 and site 2, bands after heating, FIG. 1
Experimental: Reactivities of thus synthesized PyPyLDu86 and ImPyLDu86 with DNA were determined.
Locations of alkylation can be observed as cleavage bands by heating. As a result, the double-stranded DNA was cleaved mainly at the site 1 and the site 2 from a low concentration, and it was understood that the alkylation occurred simultaneously in the double-stranded DNA. No compound to generate such a cleavage has been known until now, and it can be surely regarded as an artificial restriction enzyme.

SMILES: COC(=O)c1c(C)[nH]c2c1C13CC1CN(C(=O)/C=C/c1cc(NC(=O)c4nc(NC(C)=O)cn4C)cn1C)C3=CC2=O (stereo not shown) [ImPyLDu86]
- ratio of cleavage of double-stranded DNA: 70%

Reference: US7378237B2, “Development of method for screening physiologically active pyrrole imidazole derivative” (Japan Science & Technology Corporation, priority 1999, dated 2008)
